The values that follow come from ChEMBL document CHEMBL5244251, “Recent researches for dual Aurora target inhibitors in antitumor field” (Eur J Med Chem, 2020).

Experiment [1] in a line: Inhibition of Xenopus laevis Aurora kinase B.
The target in a further experiment is T1, Aurora kinase C (Homo sapiens, UniProt Q9UQB9).
T1 sequence (Q9UQB9 whole entry): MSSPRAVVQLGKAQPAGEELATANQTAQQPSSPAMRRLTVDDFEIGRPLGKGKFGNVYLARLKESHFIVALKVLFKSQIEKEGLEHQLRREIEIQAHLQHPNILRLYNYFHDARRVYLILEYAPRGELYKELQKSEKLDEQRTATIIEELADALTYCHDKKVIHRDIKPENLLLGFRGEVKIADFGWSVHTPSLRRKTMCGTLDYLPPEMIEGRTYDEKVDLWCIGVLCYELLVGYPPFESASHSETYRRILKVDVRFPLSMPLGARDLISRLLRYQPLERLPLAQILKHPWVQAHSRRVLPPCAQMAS
The experiment in a line: Inhibition of human Aurora C.

The nature of experiment [2]: Antitumor activity against human Fuji cells xenografted in mouse assessed as reduction in tumor volume. The format is functional. Also noted: scale not given: the % may be the effect or the level left. Background: A xenograft is tissue or cells of one species grown in another, often human tumour cells in immunodeficient mice.
Experiment [3] in a line: Antitumor activity against human Fuji cells xenografted in mouse assessed as reduction in tumor weight. The format is functional. Also noted: scale not given: the % may be the effect or the level left.
For the next experiment, the system named is A-375. The experiment in a line: Antitumor activity against human A-375 cells xenografted in mouse assessed as tumor growth inhibition. The format is functional.

pIC50: −log10 of the molar value.

In general, pIC50 refers to the IC50 on a negative log10 scale, so that one unit is a factor of ten. As to `CCNC(=O)C#Cc1ccc2c(c1)NC(=O)/C2=C(\Nc1ccc(CN(C)C)cc1)c1ccccc1`, the pIC50 in experiment [1] was 8.52; on Aurora kinase C it was 7.82. With `CN(C)S(=O)(=O)c1ccc2c(c1)/C(=C/c1cc3c([nH]1)CCCC3)C(=O)N2`, the Activity in experiment [2] turned out to be 16%; in experiment [3] it was 13%. The TGI is how far tumour growth fell short of that in controls. Take `Nc1nc(Nc2ccc(S(N)(=O)=O)cc2)nn1C(=O)c1c(F)cccc1F` [JNJ-7706621]: the TGI in the experiment with A-375 turned out to be 95%.
